Assay results from patent publication US20070004803A1, “Compounds and methods for use in treating neoplasia and cancer based upon inhibitors of isoprenylcysteine methyltransferase” (Purdue Research Foundation, priority 2003, published 2007).

How the values were obtained:
[1] = biological target: T1, Saccharomyces cerevisiae Icmt (Saccharomyces cerevisiae, UniProt P32584); assay: In vitro vapor diffusion methyltransferase assay, AFC analogues as substrates; type: biochemical; details: Relative velocity (compared to AFC) at 125 μM; substrate ability
T1 construct: A 734 bp EagI-SacII fragment, which contained the gene STE14, was amplified from pSM187; made in house; host or cells: Saccharomyces cerevisiae strain CH2704 (plasmid pCHH10m3N-STE14 in the Ste14p-lacking strain SM1188); membrane fraction
T1 sequence (P32584 1-239): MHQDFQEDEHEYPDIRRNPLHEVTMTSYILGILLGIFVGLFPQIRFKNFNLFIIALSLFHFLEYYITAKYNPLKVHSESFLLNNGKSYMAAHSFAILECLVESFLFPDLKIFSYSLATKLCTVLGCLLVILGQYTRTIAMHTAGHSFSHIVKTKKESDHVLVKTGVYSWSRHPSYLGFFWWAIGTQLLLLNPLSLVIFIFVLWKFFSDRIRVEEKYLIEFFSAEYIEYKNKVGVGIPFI
Method: Previous studies in this laboratory have focused on the isoprenoid substrate specificity of FTase. […] These isoprenoid moieties were chosen in part because the corresponding FPP analogues are alternative substrates for FTase, and can thus be readily incorporated into peptides and proteins. The assays were performed using overexpressed, reconstituted recombinant Saccharomyces cerevisiae Icmt.
(§1) Isolation of Membrane Fraction from Yeast Cells—Mid-log phase yeast cells (2.0-3.0 OD600/mL), grown in SC-URA, media, were harvested by centrifugation at 3500×g for 10 minutes at 4° C., washed with 10 mM NaN3, and resuspended in lysis buffer (0.3 M sorbitol, 10 mM Tris-HCl pH 7.5, 0.1 M NaCl, 5 mM MgCl2, 1% aprotinin, 10 μg/mL leupeptin, 10 μg/in L pepstatin A, 10 μg/mL chymostatin, 10 μg/mL bestatin, 1 mM dithiothreitol, and 2 mM AEBSF) to a final concentration of 800 OD600/mL. After a 15 min incubation on ice, the cells were frozen and thawed twice in liquid N2. The cells were then lysed by passing the mixture twice through a French press. The resultant mixture was centrifuged at 500×g to remove whole cells and other particulate. The supernatant was then treated with 50 U/mL micrococcal nuclease followed by centrifugation at 150,000×g in a Beckman L5 50B centrifuge (45 Ti rotor) for 90 minutes at 4° C., to pellet the membrane fraction. The pellet was resuspended in lysis buffer containing 10% glycerol, aliquoted, and stored at −80° C. Membrane protein concentration was determined using Coomassie Plus Protein Assay Reagent (Pierce Biotechnology) according to the manufacturers instructions, and compared to a BSA standard curve prepared by the same procedure. Protein samples were analyzed by immunoblot analysis and in vitro vapor diffusion methyltransferase assay as described elsewhere.
(§2) In vitro vapor diffusion methyltransferase assay—Methyltrasferase assays were performed in a total volume of 60 μL and a final Tris-HCl concentration of 100 mM, pH 7.5. All reactions contained 20 μM S-adenosyl-[^14C-methyl]-methionine (SAM) and 5 μg of membrane protein from the His-Ste14p overexpressing strain CH2704. Substrate curves were generated by varying the amount of compound in each reaction. […] The 60 μL reactions were incubated at 30° C. for 30 minutes. The reaction was stopped with the addition of 50 μL of 1M NaOH/1% SDS. 100 μL of this mixture is then spotted on folded filter paper (5.5 cm×1.5 cm) and lodged in the neck of a scintillation vial containing 10 mL of scintillation fluid. Hydroxide ion forms a tetrahedral intermediate with the newly formed ^14C-methyl ester on the methyl acceptor. This intermediate then eliminates ^14C-methanol, which diffuses into the scintillation fluid below. The filters were pulled out after 2-3 hours, the vials were shaken well and counted in a liquid scintillation analyzer.

[2] = biological target: T1, Saccharomyces cerevisiae Icmt; assay: In vitro vapor diffusion methyltransferase assay, inhibition of AFC methylation; type: biochemical; details: for Icmt inhibitory ability (in words): inhibition of AFC methylation; for IC50: inhibition curves in the presence of 33 μM AFC
Method: Previous studies in this laboratory have focused on the isoprenoid substrate specificity of FTase. We have discovered analogues that are effective alternative substrates, and compounds that are potent inhibitors. […] In the initial study, six isoprenoid-modified analogues (2-7, Chart 1, below) of the minimal Icmt substrate AFC 1 were prepared and evaluated as substrates and as inhibitors of the enzyme. These isoprenoid moieties were chosen in part because the corresponding FPP analogues are alternative substrates for FTase, and can thus be readily incorporated into peptides and proteins. The assays were performed using overexpressed, reconstituted recombinant Saccharomyces cerevisiae Icmt.
as §1
as §2, with “reaction. Inhibition curves were generated by varying the amount of compound in each reaction while in the presence of 33 μM N-acetyl-S-farneslylcysteine (AFC).” for “reaction.”

SMILES | Icmt krel [1] | also measured
CC(=O)N[C@@H](CSC/C=C(\C)CC/C=C(\CC=C(C)C)CC/C=C(\C)CCC=C(C)C)C(=O)O [Compound 13, N-Acetyl-S-(7-(3-methylbut-2-enyl) 3,11,15-trimethylhexadeca-2Z,6E,10E,14-tetraen-1-yl)-L-cysteine] | 16.3 | IC50 [2]: 130 µM
CCCCCCCCCC/C(C)=C/CSC[C@H](NC(C)=O)C(=O)O [Compound 6] | 24.2 | –
CC(=O)N[C@@H](CSCC=C(C)CCC=C(C)CCC=C(C)C)C(=O)O [Compound 1, N-acetyl-S-farneslylcysteine, reference compound] | 100 | –
CC(=O)N[C@@H](CSC/C=C(\CC=C(C)C)CC/C=C(\C)CC/C=C(\C)CCC=C(C)C)C(=O)O [Compound 12, N-Acetyl-S-(3-(3-methylbut-2-enyl) 7,11,15-trimethylhexadeca-2Z,6E,10E,14-tetraen-1-yl)-L-cysteine] | 50.0 | IC50 [2]: 130 µM
CC(=O)N[C@@H](CSC/C=C(\CC=C(C)C)CC/C=C(\C)CCC=C(C)C)C(=O)O [Compound 3, N-Acetyl-S-(3-(3-methylbut-2-enyl)-7,11-dimethyldodeca-2(Z),6(E),10-trien-1-yl)-L-cysteine] | 5.9 | Ki ([2]; AFC(protein)-competitive inhibition of Icmt): 21.3 µM; Icmt inhibitory ability (in words) [2]: low micromolar inhibitor of AFC methylation; mode of action ([2]; varying AFC at constant inhibitor concentration): AFC(protein)—competitive inhibitor of Icmt

The next lines start with results.

Icmt krel [1] | SMILES | also measured
0.70 | CC(=O)N[C@@H](CSC/C=C(\CC=C(C)C)CCc1ccc(-c2ccccc2)cc1)C(=O)O [Compound 14] | Icmt inhibitory ability (in words) [2]: moderately effective inhibitor of Icmt
35.0 | CC(=O)N[C@@H](CSC/C=C(\C)CC/C=C(\CC=C(C)C)CCC=C(C)C)C(=O)O [Compound 10, N-Acetyl-S-(7-(3-methylbut-2-enyl)-3,11-dimethyldodeca-2Z,6E,10-trien-1-yl) -L-cysteine] | –
19.1 | CC(=O)N[C@@H](CSC/C=C(\C)CC/C=C(/C)CCC=C(C)C)C(=O)O [Compound 5, N-Acetyl-S-(3,7,11-trimethyldodeca-2(E),6(Z),10-trien-1-yl)-L-cysteine] | –
62.0 | CC(=O)N[C@@H](CSC/C=C(/C)CC/C=C(\C)CCC=C(C)C)C(=O)O [Compound 4, N-Acetyl-S-(3,7,11-trimethyldodeca-2(Z),6(E),10-trien-1-yl)-L-cysteine] | –
35.4 | C=CCC/C(=C\CSC[C@H](NC(C)=O)C(=O)O)CC/C=C(\C)CCC=C(C)C [Compound 9, N-Acetyl-S-(3-(but-3-enyl)-7,11-dimethyldodeca-2Z,6E,10-trien-1-yl)-L-cysteine] | –
18.6 | C=CCC(=CCSC[C@H](NC(C)=O)C(=O)O)CCC=C(C)CCC=C(C)C [Compound 8, N-Acetyl-S-(3-allyl-7,11-dimethyldodeca-2,6,10-triene-1-yl)-L-cysteine] | –
